This note sets out measurements from patent US20260325504A1, “Genetically Engineered Human Pituitary Corticotroph Tumor Organoids Exhibit Divergent Responses to Selective Glucocorticoid Receptor Modulators” (Corcept Therapeutics Incorporated, priority 2022, published 2026).

SMILES strings stand for the structures. Entries after “also recorded” stand apart in the source; their conditions may differ.

What all share (format): cell-based, human
For one assay, the system named is SSTR2. As to the kind of experiment: Spectral flow cytometry, SSTR2 positive cells, hPITOs. The note with it: hPITO, 48 h, FIGS. 9E, F. An excerpt:
(§1) 1.3 Generation and Culture of Human PitNET Tissue Organoids (hPITOs)
(§2) Patients undergoing planned transsphenoidal surgery for PitNETs were identified in the outpatient neuroendocrinology and neurosurgery clinics and collected by the St. Joseph's Hospital and Barrow Neurological Institute Biobank under the collection protocol PHXA-05TS038, and outcomes data protocol PHXA-0004-72-29 with approval of the Institutional Review Board (IRB) and patient consent. De-identified samples were shipped in collection and transport media (Table 3) to the Zavros laboratory (University of Arizona) for processing within 24 hours of collection. Resected PitNET tissues were washed with Dulbeccos Phosphate Buffered Saline (DPBS) supplemented with 1× Penicillin/Streptomycin, 1× Kanamycin and 1× Amphotericin/Gentamycin, minced into smaller pieces, and incubated with digestion buffer (Dulbecco's Modified Eagle Medium/Nutrient Mixture F-12 (DMEM/F12) supplemented with 0.4% Collagenase 2, 0.1% Hyaluronic Acid, 0.03% Trypsin). The tissue was incubated with Accutase (Thermo Fisher Scientific) for a further 5 minutes, and the cells were pelleted and washed with DPBS supplemented with antibiotics. Dissociated cells were then seeded as Matrigel™ domes in culture dishes and overlaid with growth media (Table 4). Media was replaced every 3 days and organoids were harvested for downstream experiments or passaged after 15 days of culture (FIG. 1B).
(§3) Sonic Hedgehog (SHH) was withdrawn from the organoid growth media 16 hours prior to treatment. […] The IC50 values used for each hPITO line for each drug were determined based on dose responses (FIG. 12). […]

The subject of assay [1] is iPSC^ctrl organoids. In words: EdU uptake (proliferation) in iPSCctrl organoids. To be noted: compound alone, 500 nM, 48 h. The method, then: iPSCs were stained for pituitary specific hormones including luteinizing hormone (LH), follicle-stimulating hormone (FSH), growth hormone (GH), prolactin (PRL), ACTH, cytokeratin 8/18 (CAM5.2), pituitary transcription factor PIT-1 and neuroendocrine marker Synaptophysin (Table 5). Cultures were immunostained for proliferation marker EdU (Click-IT EdU Alexa Fluor 555 Imaging Kit, Thermo Fisher Scientific C10338). Antibody dilutions were determined based on manufacturer guidelines and antibody titration (Table 5). Staining was conducted according to previously published protocols. Briefly, organoids and iPSCs grown in 8-well glass bottom chamber slides were fixed using 3.7% formaldehyde, washed with DPBS, permeabilized with 0.5% Triton X-100 (SIGMA X-100, PBS-T, 20 min at room temperature), washed with 0.01% PBS-T, and blocked with 2% donkey serum (Jackson Immuno Research 017-000-121) for 1 hour at room temperature. After blocking, primary antibodies were added and incubated overnight at 4° C. Slides were washed with 0.01% PBS-T and incubated with secondary antibodies (Table 5) with Hoechst (Thermo Fisher Scientific H1399) for 1 hour at room temperature. Organoids were washed and stored in PBS at 4° C. until microscopic analysis. High content confocal microscopy was performed using the Nikon Ti2-E Inverted Microscope (with a Crest X-Light V2 L-FOV Spinning Disk Confocal) at the University of Arizona Cancer Center, or a ZEISS LSM880 34 channel Laser Scanning Confocal Microscope at University of Arizona Marley Imaging Core. Fluorescence intensity was quantified as the percentage of marker-positive cells versus total cells, using Nikon Elements Software (Version 5.21.05). Proliferation for each iPSC line was quantified as the percentage of EdU-positive cells versus total cells.
Sonic Hedgehog (SHH) was withdrawn from the organoid growth media 16 hours prior to treatment. The experimental treatment groups included: vehicle (Veh), mifepristone (500 nM, Selleckchem S2606), GANT61 (5 μM, Stemcell Technologies 73692), ketoconazole (Keto, 10 μM, Selleckchem S1353), pasireotide (Pas, 100 nM, Target Mol TP2207-SB001), octreotide (Oct, 100 nM, Selleckchem P1017), mifepristone plus GANT61, mifepristone plus Keto, mifepristone plus Pas, relacorilant (500 nM, Corcept Therapeutics CORT125134), relacorilant plus Pas, relacorilant plus Oct, or dexamethasone (Dexa, 100 nM, SIGMA S4902). In the combination treatments, cultures were pretreated with the GANT61, Keto, Pas or Oct for 2 hours prior to treatment with mifepristone or Rela. […] The IC50 values used for each hPITO line for each drug were determined based on dose responses (FIG. 12). […]

A further assay deals with SSTR5. In words: Spectral flow cytometry, SSTR5 positive cells, hPITOs. The note with it: hPITO, 48 h, FIGS. 9G.
Text: as §1, §2, §3
(Flow cytometry measures light scatter and fluorescence of single cells or particles in a stream.)

The subject of the next assay is iPSC^USP48MV organoids. In words: Nuclear morphometric analysis (nuclear irregularity index), iPSCUSP48MV organoids. To be noted: 500 nM, 48 h. On the procedure:
(§4) Nuclear Morphometric Analysis (NMA) using treated organoids was performed based on a published protocol that measures cell viability based on the changes in nuclear morphology of the cells using nuclear stain Hoechst or DAPI [31]. Images of organoid nuclei were analyzed using the ImageJ Nuclear Irregularity Index (NII) plugin for key parameters that included cell area, radius ratio, area box, aspect, and roundness. Using the published spreadsheet template, the NII of each cell was calculated with the following formula: NII=Aspect−Area Box+Radius Ratio+Roundness. The area vs NII of vehicle-treated cells were plotted as a scatter plot using the template and considered as the normal cell nuclei. […] The percentage of cells in each NII classification category were calculated and plotted as a histogram using GraphPad Prism.
as §3

For assay [2], the system named is iPSC^ctrl organoids. In words: Nuclear morphometric analysis (nuclear irregularity index), iPSCctrl organoids. The note with it: 500 nM, 48 h. On the procedure: as §4, §3

As to `CC#C[C@]1(O)CC[C@H]2[C@@H]3CCC4=CC(=O)CCC4=C3[C@@H](c3ccc(N(C)C)cc3)C[C@@]21C` [mifepristone, 11β-(4-dimethylaminophenyl)-17ß-hydroxy-17α-(1-propynyl)-estra-4,9-dien-3-one], in the assay with SSTR2, the “magnitude of SSTR2 induction, mifepristone vs relacorilant” value is “significantly greater than that of relacorilant” and the “percentage of SSTR2 positive cells” value is “significant increase”. Also, the “proliferation (EdU uptake)” value with iPSC^ctrl organoids [1] was “significant increase in cell proliferation”. Further, the “percentage of SSTR5 positive cells” value in the assay on SSTR5 is recorded as “significant increase”. Moreover, the “apoptotic cells by nuclear irregularity index (NII)” value in the assay on iPSC^USP48MV organoids was “not observed; also recorded: induces apoptosis in neither the tumor organoid iPSC^USP48MV nor the control organoid iPSC^ctrl”. In the assay with iPSC^ctrl organoids [2], the “apoptotic cells by nuclear irregularity index (NII)” value is “not observed; also recorded: induces apoptosis in neither the tumor organoid iPSC^USP48MV nor the control organoid iPSC^ctrl”.
On to `Cn1cc(S(=O)(=O)N2CCC3=Cc4c(cnn4-c4ccc(F)cc4)C[C@]3(C(=O)c3cc(C(F)(F)F)ccn3)C2)cn1` [relacorilant, (R)-(1-(4-fluorophenyl)-6-((1-methyl-1H-pyrazol-4-yl)sulfonyl)-4,4a,5,6,7,8-hexahydro-1H-pyrazolo[3,4-g]isoquinolin-4a-yl) (4-(trifluoromethyl)pyridin-2-yl) methanone], for which, in the assay with SSTR2, the “percentage of SSTR2 positive cells” value is “significant increase”. The “proliferation (EdU uptake)” value with iPSC^ctrl organoids [1] is recorded as “did not induce organoid proliferation”. Further, in the assay with SSTR5, the “magnitude of SSTR5 induction, relacorilant vs mifepristone” value is on record as “significantly greater than that of mifepristone” and the “percentage of SSTR5 positive cells” value is reported as “significant increase; also recorded: significantly upregulated”. For the same molecule, the “apoptotic cells by nuclear irregularity index (NII)” value with iPSC^USP48MV organoids is recorded as “significant expression pattern of nuclear morphology consistent with increased apoptotic cells; also recorded: consistent with increased apoptosis cells”. Besides, the “apoptotic cells by nuclear irregularity index (NII)” value in the assay on iPSC^ctrl organoids [2] was “not observed”.
